From the supplement of paper PMC10307832

What was measured:
Assay in all cases: relative viability (nuclei count vs DMSO), 5 days (fraction); higher = more cells survive
Elesclomol = compound: CN(NC(=O)CC(=O)NN(C)C(=S)c1ccccc1)C(=S)c1ccccc1 [Elesclomol]
Method in brief: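 A plate was accepted only when its control CV was below 25% and the cells had doubled at least once. Viability is defined from nuclear counts as treated wells divided by vehicle wells, with the median taken across plates. That median covers lung cancer cell lines grown in 1536-well plates, dosed by pinning at five √10-spaced library-drug concentrations, and counted in MetaXpress from 4× Hoechst images after 5 days.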

Elesclomol + Navitoclax = compound: CN(NC(=O)CC(=O)NN(C)C(=S)c1ccccc1)C(=S)c1ccccc1 [Elesclomol] + CC1(C)CCC(c2ccc(Cl)cc2)=C(CN2CCN(c3ccc(C(=O)NS(=O)(=O)c4ccc(N[C@H](CCN5CCOCC5)CSc5ccccc5)c(S(=O)(=O)C(F)(F)F)c4)cc3)CC2)C1 [Navitoclax] (partner 0.5 µM)
Method in brief: (§1)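 For relative viability, nuclei counts in treated wells were divided by those in vehicle wells. Lung cancer cell lines had been pin-tool dosed in 1536-well plates the day after seeding and cultured for 5 days, then fixed and stained in one step (final 0.05% Triton X-100, 1% formaldehyde, 1 ug/ml Hoechst) and imaged at 4×. Doses were one drug alone or a fixed anchor-drug dose plus five library-drug doses (not always all listed) in √10 steps, and values are duplicate-plate medians.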

Elesclomol + Lapatinib = compound: CN(NC(=O)CC(=O)NN(C)C(=S)c1ccccc1)C(=S)c1ccccc1 [Elesclomol] + CS(=O)(=O)CCNCc1ccc(-c2ccc3ncnc(Nc4ccc(OCc5cccc(F)c5)c(Cl)c4)c3c2)o1 [Lapatinib] (partner 2 µM)
Method in brief: as §1

Elesclomol + Dasatinib = compound: CN(NC(=O)CC(=O)NN(C)C(=S)c1ccccc1)C(=S)c1ccccc1 [Elesclomol] + Cc1nc(Nc2ncc(C(=O)Nc3c(C)cccc3Cl)s2)cc(N2CCN(CCO)CC2)n1 [Dasatinib] (partner 0.075 µM)
Method in brief: as §1

Elesclomol + Vorinostat = compound: CN(NC(=O)CC(=O)NN(C)C(=S)c1ccccc1)C(=S)c1ccccc1 [Elesclomol] + O=C(CCCCCCC(=O)Nc1ccccc1)NO [Vorinostat] (partner 1 µM)
Method in brief: as §1

Cell Line | relative viability (Elesclomol; 0.003162 µM) | relative viability (Elesclomol; 0.01 µM) | relative viability (Elesclomol; 0.03162 µM) | relative viability (Elesclomol; 0.1 µM) | relative viability (Elesclomol + Navitoclax; first compound 0.003162 µM) | relative viability (Elesclomol + Navitoclax; first compound 0.01 µM) | relative viability (Elesclomol + Navitoclax; first compound 0.03162 µM) | relative viability (Elesclomol + Navitoclax; first compound 0.1 µM) | relative viability (Elesclomol + Lapatinib; first compound 0.003162 µM) | relative viability (Elesclomol + Lapatinib; first compound 0.01 µM) | relative viability (Elesclomol + Lapatinib; first compound 0.03162 µM) | relative viability (Elesclomol + Lapatinib; first compound 0.1 µM) | relative viability (Elesclomol + Dasatinib; first compound 0.003162 µM) | relative viability (Elesclomol + Dasatinib; first compound 0.01 µM) | relative viability (Elesclomol + Dasatinib; first compound 0.03162 µM) | relative viability (Elesclomol + Dasatinib; first compound 0.1 µM) | relative viability (Elesclomol + Vorinostat; first compound 0.003162 µM) | relative viability (Elesclomol + Vorinostat; first compound 0.01 µM) | relative viability (Elesclomol + Vorinostat; first compound 0.1 µM) | relative viability (Elesclomol + Vorinostat; first compound 0.03162 µM)
EMC-BAC-2 | 1.05 | 0.548 | 0.602 | 0.557 | 1.2 | 1.06 | 1.06 | 0.604 | 0.841 | 0.797 | 0.757 | 0.541 | 0.361 | 0.28 | 0.286 | 0.138 | 0.486 | 0.231 | 0.22 | –
NCI-H661 | 0.91 | 0.807 | 0.374 | 0.298 | – | – | – | – | 0.368 | 0.205 | 0.236 | 0.186 | 0.869 | 0.477 | 0.223 | 0.177 | 0.768 | 0.565 | 0.26 | 0.304
LU99A | 0.919 | 0.811 | 0.986 | 0.544 | 0.79 | – | 0.881 | 0.132 | 1.02 | – | 0.921 | 0.135 | 0.569 | 0.39 | 0.512 | 0.185 | 0.438 | 0.459 | 0.162 | 0.429
LK-2 | 0.796 | 0.715 | 0.507 | 0.157 | 0.671 | 0.247 | 0.142 | 0.115 | 0.698 | 0.22 | 0.17 | 0.0799 | 0.275 | 0.367 | 0.23 | 0.105 | 0.395 | 0.232 | 0.121 | 0.167
NCI-H3122 | 0.987 | 1 | 0.957 | 0.349 | 1.05 | 1.03 | 1.01 | 0.247 | 0.999 | 0.989 | 0.978 | 0.434 | 0.836 | 0.947 | 0.587 | 0.0775 | 0.652 | 1.02 | 0.111 | 0.881
NCI-H1563 | 0.786 | 0.675 | 0.651 | 0.542 | – | – | – | – | 0.625 | 0.562 | 0.601 | 0.458 | 0.447 | 0.476 | 0.413 | 0.382 | – | – | – | –
NCI-H358 | 0.752 | 0.225 | 0.215 | 0.196 | – | – | – | – | 0.272 | 0.244 | 0.209 | 0.184 | 0.0973 | 0.101 | 0.0734 | 0.0654 | 0.62 | 0.0764 | 0.0819 | 0.0906
IA-LM | 0.855 | 0.374 | 0.0911 | 0.0299 | 0.415 | 0.133 | 0.0436 | 0.0194 | 0.658 | 0.201 | 0.121 | 0.0621 | – | – | – | – | 0.863 | 0.858 | 0.847 | 0.999
ChaGo-K-1 | 0.947 | 0.952 | 0.663 | 0.199 | 0.739 | 0.374 | 0.258 | 0.221 | – | – | – | – | 0.609 | 0.458 | 0.214 | 0.116 | 0.791 | 0.638 | 0.146 | 0.338
NCI-H2342 | 0.865 | 1.02 | 0.571 | 0.612 | – | – | – | – | – | – | – | – | 0.318 | 0.305 | 0.247 | 0.267 | 0.732 | 0.8 | 0.771 | 0.757
NCI-H441 | 1.06 | 0.945 | 0.55 | 0.179 | 0.712 | 0.469 | 0.253 | 0.103 | – | – | – | – | 0.547 | 0.656 | 0.451 | 0.0877 | 0.553 | 0.729 | 0.17 | 0.445
ABC-1 | 0.239 | 0.252 | 0.201 | 0.328 | – | – | – | – | 0.935 | 0.477 | 0.466 | 0.42 | 0.173 | 0.233 | 0.207 | 0.193 | 0.426 | 0.249 | 0.244 | 0.262
NCI-H1792 | 0.916 | 0.51 | 0.762 | 0.513 | 0.608 | 0.566 | 0.504 | 0.628 | 0.867 | 0.841 | 0.807 | 0.932 | 0.951 | 0.586 | 0.612 | 0.655 | – | – | – | –
HCC-44 | 0.968 | 0.935 | 0.831 | 0.764 | 0.941 | 0.993 | 0.987 | 0.538 | 0.95 | 0.941 | 1.03 | 0.727 | – | – | – | – | 1.09 | 1.16 | 1.08 | 1.16
NCI-H1703 | 0.273 | 0.173 | 0.0832 | 0.101 | 0.141 | 0.0995 | 0.116 | 0.107 | 0.262 | 0.216 | 0.157 | 0.129 | – | – | – | – | – | – | – | –
NCI-H522 | 1.03 | 0.877 | 0.801 | 0.53 | – | – | – | – | – | – | – | – | 0.842 | 0.812 | 0.868 | 0.454 | 0.927 | 0.888 | 0.604 | 0.862
SW 900 | 0.871 | 0.701 | 0.251 | 0.0829 | – | – | – | – | – | – | – | – | 0.626 | 0.41 | 0.144 | 0.196 | 0.522 | 0.345 | 0.111 | 0.234
NCI-H650 | 1 | 0.696 | 0.332 | 0.249 | – | – | – | – | 0.805 | 0.373 | 0.195 | 0.289 | 0.535 | 0.341 | 0.227 | 0.24 | 0.539 | 0.38 | 0.132 | 0.184
LCLC-103H | 1 | 0.856 | 0.993 | 0.842 | – | – | – | – | – | – | – | – | 0.498 | 0.344 | 0.533 | 0.399 | 0.82 | 0.496 | 0.568 | 0.877
